Laboratory results from US20240391871A1, “SUBSTITUTED HYDROXYMETHYL PYRROLIDINES AND MEDICAL USES THEREOF” (ATROGI AB, priority 2021, published 2024).
Where a name gives a salt, the structure may show the parent alone.

Tests used:
Assay type in all cases: cell-based
[1] = test system: L6-myotubes; experiment: Glucose uptake in L6-myotubes in the presence of the β2-antagonist ICI-118,551; details: compound 1×10^−5 M, ICI-118,551 1×10^−5 M
Protocol: (§1) L6-myoblasts were grown in Dulbecco's Modified Eagle's Medium (DMEM) containing 1 g/L glucose supplemented with 10% fetal bovine serum, 2 mM L-Glutamine, 50 U/mL penicillin, 50 μg/mL streptomycin and 10 mM HEPES. Cells were plated at 1×10^5 cells per mL in 24-well plates. After reaching 90% confluence the cells were grown in medium containing 2% FBS for 7 days where upon cells differentiated into myotubes.
Differentiated L6-myotubes were serum-starved overnight in medium containing 0.5% fatty-acid free BSA and were incubated with the β2-adrenergic receptor antagonist ICI-118,551 at a final concentration of 1×10^−5 M for 30 min. The cells were stimulated with a compound of the invention, at a final concentration of 1×10^−5 M. After 1 h 40 min the cells were washed twice with warm, glucose free medium or PBS and additional portions of the compound of the invention and the antagonist were added. After 20 min the cells were exposed to 50 nM ^3H-2-deoxyglucose for 10 min before washed with ice cold glucose free medium or PBS three times and lysed with 0.2 M NaOH, 400 μL/well, for 1 h at 60° C. The cell lysate was mixed with 4 mL scintillation buffer (Emulsifier Safe, Perkin Elmer) and the radioactivity was detected in a β-counter (Tri-Carb 4810TR, Perkin Elmer). The activity for each compound is compared to that of isoproterenol.

[2] = test system: L6-myotubes; experiment: Glucose uptake (3H-2-deoxyglucose) in differentiated L6-myotubes; details: compound 1×10^−5 M; for Emax at 10 µM: read-out: Biological example 1: glucose uptake, activity compared to that of isoproterenol
Protocol: as §1
Differentiated L6-myotubes were serum-starved overnight in medium containing 0.5% fatty-acid free BSA and stimulated with an agonist, with a final concentration of 1×10^−5 M. After 1 h 40 min the cells were washed with warm glucose free medium or PBS twice and another portion of agonist was added to the glucose free medium. After 20 min the cells were exposed to 50 nM ^3H-2-deoxyglucose for 10 min before washed with ice cold glucose free medium or PBS three times and lysed with 0.2 M NaOH, 400 μL/well, for 1 h at 60° C. The cell lysate was mixed with 4 mL scintillation buffer (Emulsifier Safe, Perkin Elmer) and the radioactivity was detected in a β-counter (Tri-Carb 4810TR, Perkin Elmer). The activity for each compound is compared to that of isoproterenol.

[3] = test system: Intracellular cAMP levels; experiment: Measurement of intracellular cAMP levels in differentiated L6 cells; details: compound 1×10^−5 M, 15 min; for Emax at 10 µM: Rattus norvegicus, L6, 0.25 h, read-out: Biological example 2: intracellular cAMP levels, activity compared to that of isoproterenol
Protocol: as §1
Differentiated cells were serum-starved overnight and stimulated with an agonist, final concentration 1×10^−5 M, for 15 min in stimulation buffer (HBSS supplemented with 1% BSA, 5 mM HEPES and 1 mM IBMX, pH 7.4). The medium was aspirated and 100 μL of 95% EtOH was added to each well of the 24-well plate and cells were kept at −20° C. overnight. The EtOH was allowed to evaporate and 500 μL of lysis buffer (1% BSA, 5 mM HEPES and 0.3% Tween-20, pH 7.4) was added to each well. The plate was kept at −80° C. for 30 min and then at −20° C. until the day of detection when the samples were thawed. Intracellular cAMP levels were detected using an alpha screen cAMP kit (6760635D from Perkin Elmer). The activity for each compound is compared to that of isoproterenol.

Row | SMILES | Biological example 3: glucose uptake in the presence of the β2-antagonist ICI-118,551, activity compared to that of isoproterenol [1] | Emax at 10 µM [2] [%] | Emax at 10 µM [3] [%] | Biological example 1: glucose uptake, activity compared to that of isoproterenol [2] | Biological example 2: intracellular cAMP levels, activity compared to that of isoproterenol [3] | Biological example 1: glucose uptake, activity compared to that of isoproterenol ([2]; hydrochloride)
1 | CO[C@H]1CC[C@H](C[C@@H]2CC[C@H]([C@H](O)c3ccccc3F)N2)CC1.Cl [Example 5] | − (less than 25%) | – | – | – | – | –
2 | CO[C@H]1CC[C@H](C[C@H]2CC[C@H]([C@H](O)c3ccccc3F)N2)CC1.Cl [Example 7, (R)-(2-Fluorophenyl)((2R,5R)-5-(((1r,4S)-4-methoxycyclohexyl)methyl) -pyrrolidin-2-yl)methanol hydrochloride] | − (less than 25%) | > 75 | 25 to 50 | – | – | –
3 | CO[C@H]1CC[C@H](C[C@@H]2CC[C@H]([C@H](O)c3cccc(F)c3)N2)CC1.Cl [Example 1, (R)-(3-Fluorophenyl)((2R,5S)-5-(((1r,4S)-4-methoxycyclohexyl)methyl) -pyrrolidin-2-yl)methanol hydrochloride] | − (less than 25%) | – | – | +++ (more than 75% of that of isoproterenol) | − (less than 25%) | –
4 | CO[C@H]1CC[C@H](C[C@H]2CC[C@H]([C@H](O)c3cccc(F)c3)N2)CC1.Cl [Example 3, (R)-(3-Fluorophenyl)((2R,5R)-5-(((1r,4R)-4-methoxycyclohexyl)-methyl) -pyrrolidin-2-yl)methanol hydrochloride] | − (less than 25%) | – | – | +++ (more than 75% of that of isoproterenol) | − (less than 25%) | –
5 | CO[C@H]1CC[C@H](C[C@@H]2CC[C@H]([C@@H](O)c3cccc(F)c3)N2)CC1.Cl [Example 2, (S)-(3-Fluorophenyl)((2R,5S)-5-(((1r,4S)-4-methoxycyclohexyl) -methyl)pyrrolidin-2-yl)methanol hydrochloride] | − (less than 25%) | – | – | +++ (more than 75% of that of isoproterenol) | − (less than 25%) | –
6 | CC(=O)N(Cc1ccccc1)[C@H]1CC[C@@H](C[C@@H]2CC[C@H]([C@H](O)c3cccc(F)c3)N2)CC1 [Example 33, N-Benzyl-N-((1R,4s)-4-(((25,5R)-5-((R)-(3-fluorophenyl)(hydroxy)methyl) -pyrrolidin-2-yl)methyl)cyclohexyl)acetamide hydrochloride] | – | 50 to 75 | < 25 | – | – | –
7 | COc1ccc(C[C@H]2CC[C@H]([C@H](O)c3cncc(F)c3)N2)cc1 [Example 23, (R)-(5-Fluoropyridin-3-yl)(2R,5R)-5-(4-methoxybenzyl)pyrrolidin-2-yl)methanol dihydrochloride] | – | > 75 | < 25 | – | – | –
8 | CO[C@H]1CC[C@H](C[C@@H]2CC[C@H]([C@H](O)c3cncc(F)c3)N2)CC1 [Example 9, (R)-(5-Fluoropyridin-3-yl)(2R,5S)-5-(((1r,4S)-4-methoxycyclohexyl)methyl) -pyrrolidin-2-yl)methanol dihydrochloride] | – | 25 to 50 | < 25 | – | – | –
9 | CO[C@H]1CC[C@H](C[C@H]2CC[C@H]([C@@H](O)c3cccc(F)c3)N2)CC1.Cl [Example 4, (S)-(3-Fluorophenyl)((2R,5R)-5-(((1r,4R)-4-methoxycyclohexyl)-methyl) -pyrrolidin-2-yl)methanol hydrochloride] | – | – | – | + (between 50 and 25%) | − (less than 25%) | –
10 | CC(=O)N[C@H]1CC[C@H](C[C@@H]2CC[C@H]([C@H](O)c3cccc(F)c3)N2)CC1.Cl [Example 42, N-((1S,4r)-4-(((2S,5R)-5-((R)-(3-Fluorophenyl)(hydroxy)methyl)pyrrolidin-2-yl)methyl)cyclohexyl)acetamide hydrochloride] | – | – | – | – | − (less than 25%) | ++ (between 75 and 50%)
11 | COc1ccc(C[C@@H]2CC[C@H]([C@@H](O)c3cccc(F)c3)N2)cc1 [Example 14, (S)-(3-Fluorophenyl)((2R,5S)-5-(4-methoxybenzyl)pyrrolidin-2-yl)methanol hydrochloride] | – | > 75 | < 25 | – | – | –
12 | CS(=O)(=O)N[C@H]1CC[C@H](C[C@@H]2CC[C@H]([C@H](O)c3cccc(F)c3)N2)CC1 [Example 46, N-((1S,4r)-4-(((2S,5R)-5-((R)-(3-Fluorophenyl)(hydroxy)methyl)pyrrolidin-2-yl)methyl)cyclohexyl)methanesulfonamide hydrochloride] | – | > 75 | < 25 | – | – | –
